Reference: US6528630B1 (priority 1997, dated 2003)

Columns and labels:
α1B-1α2bβ1-2 [1] = molecular target: T1, α1B-1α2bβ1-2 (Homo sapiens, UniProt Q00975); type: cell-based
T1 construct: A full-length α1B DNA clone was constructed by ligating portions of the partial cDNA clones; expressed in transfected cells; host or cells: HEK293 (transient)

[2] = test system: untransfected HEK 293 cells; assay: Whole-cell patch clamp of untransfected HEK 293 cells; type: cell-based, human; settings: with or without cAMP or forskolin
[3] = test system: human neuronal calcium channel α2 and β1 subunits; assay: Two-electrode voltage clamp of Xenopus oöcytes injected with α2 and β1 transcripts; settings: Bay K 8644; n=11
α1B-2a2bβ1-2 = molecular target: T2, α1B-2a2bβ1-2 (Homo sapiens, UniProt Q00975); type: binding
T2 construct: Full-length DNA clones and corresponding RNA transcripts, encoding α1, including splice variants of α1A, α1B; expressed in transfected cells; host or cells: HEK293 (transient)

α1B-1β1-3 = molecular target: T3, α1B-1β1-3 (Homo sapiens, UniProt Q00975); type: binding
T3 construct: A full-length α1B DNA clone was constructed by ligating portions of the partial cDNA clones; expressed in transfected cells; host or cells: HEK293 (transient)

α1B-1α2b = molecular target: T4, α1B-1α2b (Homo sapiens, UniProt Q00975); type: binding
T4 construct: A full-length α1B DNA clone was constructed by ligating portions of the partial cDNA clones; expressed in transfected cells; host or cells: HEK293 (transient)

α1B-2α2bβ1-3 = molecular target: T5, α1B-2α2bβ1-3 (Homo sapiens, UniProt Q00975); type: binding
T5 construct: Full-length DNA clones and corresponding RNA transcripts, encoding α1, including splice variants of α1A, α1B; expressed in transfected cells; host or cells: HEK293 (transient)

α1B-2β1-3 = molecular target: T6, α1B-2β1-3 (Homo sapiens, UniProt Q00975); type: binding
T6 construct: Full-length DNA clones and corresponding RNA transcripts, encoding α1, including splice variants of α1A, α1B; expressed in transfected cells; host or cells: HEK293 (transient)

α1B-1α2bβ1-2 [4] = molecular target: T1, α1B-1α2bβ1-2; type: binding
α1B-1β1-2 = molecular target: T7, α1B-1β1-2 (Homo sapiens, UniProt Q00975); type: binding
T7 construct: A full-length α1B DNA clone was constructed by ligating portions of the partial cDNA clones; expressed in transfected cells; host or cells: HEK293 (transient)

α1B-2β1-2 = molecular target: T8, α1B-2β1-2 (Homo sapiens, UniProt Q00975); type: binding
T8 construct: Full-length DNA clones and corresponding RNA transcripts, encoding α1, including splice variants of α1A, α1B; expressed in transfected cells; host or cells: HEK293 (transient)

α1B-1α2bβ1-3 = molecular target: T9, α1B-1α2bβ1-3 (Homo sapiens, UniProt Q00975); type: binding
T9 construct: A full-length α1B DNA clone was constructed by ligating portions of the partial cDNA clones; expressed in transfected cells; host or cells: HEK293 (transient)

[5] = molecular target: T10, α1B-1, α2b, and β1-2 subunits (Homo sapiens, UniProt Q00975); type: binding
T10 construct: A full-length α1B DNA clone was constructed by ligating portions of the partial cDNA clones; expressed in transfected cells; host or cells: HEK293 (transient)

T1 sequence (Q00975 whole entry, looked up): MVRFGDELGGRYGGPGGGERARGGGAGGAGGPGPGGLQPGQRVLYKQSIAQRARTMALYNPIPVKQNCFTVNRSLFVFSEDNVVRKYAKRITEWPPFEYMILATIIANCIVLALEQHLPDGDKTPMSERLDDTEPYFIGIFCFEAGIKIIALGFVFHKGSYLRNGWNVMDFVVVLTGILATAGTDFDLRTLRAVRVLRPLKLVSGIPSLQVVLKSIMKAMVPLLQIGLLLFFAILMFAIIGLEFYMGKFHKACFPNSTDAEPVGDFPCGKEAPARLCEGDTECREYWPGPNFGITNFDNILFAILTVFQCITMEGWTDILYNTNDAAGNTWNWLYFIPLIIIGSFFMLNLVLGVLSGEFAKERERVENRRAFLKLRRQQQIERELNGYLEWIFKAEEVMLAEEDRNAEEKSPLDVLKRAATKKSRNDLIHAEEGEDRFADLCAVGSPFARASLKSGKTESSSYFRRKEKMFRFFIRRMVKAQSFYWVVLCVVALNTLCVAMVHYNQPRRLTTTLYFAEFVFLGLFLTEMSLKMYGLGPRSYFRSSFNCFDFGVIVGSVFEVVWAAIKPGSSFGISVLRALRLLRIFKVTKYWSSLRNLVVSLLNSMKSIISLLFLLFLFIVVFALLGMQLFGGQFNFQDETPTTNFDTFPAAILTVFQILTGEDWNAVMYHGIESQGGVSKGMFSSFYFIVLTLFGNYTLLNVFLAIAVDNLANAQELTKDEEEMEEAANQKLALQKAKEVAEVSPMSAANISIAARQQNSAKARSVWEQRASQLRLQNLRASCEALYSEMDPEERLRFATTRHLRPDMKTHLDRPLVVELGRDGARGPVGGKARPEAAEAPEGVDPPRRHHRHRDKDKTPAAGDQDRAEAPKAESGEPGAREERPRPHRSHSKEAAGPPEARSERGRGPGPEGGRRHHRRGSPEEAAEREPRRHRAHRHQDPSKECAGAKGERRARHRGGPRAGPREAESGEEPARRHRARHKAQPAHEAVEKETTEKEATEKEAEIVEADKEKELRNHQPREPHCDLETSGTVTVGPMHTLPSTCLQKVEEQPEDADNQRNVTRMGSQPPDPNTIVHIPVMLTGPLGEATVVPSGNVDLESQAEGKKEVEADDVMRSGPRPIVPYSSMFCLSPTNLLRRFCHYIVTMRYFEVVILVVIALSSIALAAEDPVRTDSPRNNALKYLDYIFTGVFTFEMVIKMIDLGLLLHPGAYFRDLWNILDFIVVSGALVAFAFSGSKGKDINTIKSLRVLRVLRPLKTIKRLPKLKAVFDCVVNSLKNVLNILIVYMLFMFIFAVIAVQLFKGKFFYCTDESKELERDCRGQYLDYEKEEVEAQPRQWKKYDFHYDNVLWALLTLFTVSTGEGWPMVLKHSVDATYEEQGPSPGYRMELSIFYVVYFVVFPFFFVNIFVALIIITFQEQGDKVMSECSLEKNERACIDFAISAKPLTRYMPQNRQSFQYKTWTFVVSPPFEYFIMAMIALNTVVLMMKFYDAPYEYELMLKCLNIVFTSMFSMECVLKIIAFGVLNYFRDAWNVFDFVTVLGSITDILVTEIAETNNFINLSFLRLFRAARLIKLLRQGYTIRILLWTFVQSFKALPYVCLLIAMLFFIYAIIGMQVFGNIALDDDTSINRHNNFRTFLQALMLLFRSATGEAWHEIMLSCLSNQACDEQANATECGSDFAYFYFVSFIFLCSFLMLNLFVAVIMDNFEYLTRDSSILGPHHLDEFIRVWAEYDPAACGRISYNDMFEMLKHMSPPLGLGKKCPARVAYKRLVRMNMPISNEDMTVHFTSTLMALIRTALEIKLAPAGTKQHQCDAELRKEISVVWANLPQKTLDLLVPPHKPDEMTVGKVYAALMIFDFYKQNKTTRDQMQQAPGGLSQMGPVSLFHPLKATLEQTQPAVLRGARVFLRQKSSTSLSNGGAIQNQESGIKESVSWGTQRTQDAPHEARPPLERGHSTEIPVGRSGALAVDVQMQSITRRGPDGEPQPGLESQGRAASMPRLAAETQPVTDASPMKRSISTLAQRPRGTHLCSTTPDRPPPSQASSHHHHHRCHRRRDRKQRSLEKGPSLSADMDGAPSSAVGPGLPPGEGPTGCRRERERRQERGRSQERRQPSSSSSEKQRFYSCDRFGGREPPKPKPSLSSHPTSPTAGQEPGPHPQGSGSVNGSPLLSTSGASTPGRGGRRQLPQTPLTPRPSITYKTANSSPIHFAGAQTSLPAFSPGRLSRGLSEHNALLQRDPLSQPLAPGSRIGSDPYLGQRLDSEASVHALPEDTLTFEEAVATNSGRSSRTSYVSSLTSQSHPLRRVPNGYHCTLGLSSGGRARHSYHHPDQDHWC
T5 sequence (Q00975 1-2237 isoform Q00975-2): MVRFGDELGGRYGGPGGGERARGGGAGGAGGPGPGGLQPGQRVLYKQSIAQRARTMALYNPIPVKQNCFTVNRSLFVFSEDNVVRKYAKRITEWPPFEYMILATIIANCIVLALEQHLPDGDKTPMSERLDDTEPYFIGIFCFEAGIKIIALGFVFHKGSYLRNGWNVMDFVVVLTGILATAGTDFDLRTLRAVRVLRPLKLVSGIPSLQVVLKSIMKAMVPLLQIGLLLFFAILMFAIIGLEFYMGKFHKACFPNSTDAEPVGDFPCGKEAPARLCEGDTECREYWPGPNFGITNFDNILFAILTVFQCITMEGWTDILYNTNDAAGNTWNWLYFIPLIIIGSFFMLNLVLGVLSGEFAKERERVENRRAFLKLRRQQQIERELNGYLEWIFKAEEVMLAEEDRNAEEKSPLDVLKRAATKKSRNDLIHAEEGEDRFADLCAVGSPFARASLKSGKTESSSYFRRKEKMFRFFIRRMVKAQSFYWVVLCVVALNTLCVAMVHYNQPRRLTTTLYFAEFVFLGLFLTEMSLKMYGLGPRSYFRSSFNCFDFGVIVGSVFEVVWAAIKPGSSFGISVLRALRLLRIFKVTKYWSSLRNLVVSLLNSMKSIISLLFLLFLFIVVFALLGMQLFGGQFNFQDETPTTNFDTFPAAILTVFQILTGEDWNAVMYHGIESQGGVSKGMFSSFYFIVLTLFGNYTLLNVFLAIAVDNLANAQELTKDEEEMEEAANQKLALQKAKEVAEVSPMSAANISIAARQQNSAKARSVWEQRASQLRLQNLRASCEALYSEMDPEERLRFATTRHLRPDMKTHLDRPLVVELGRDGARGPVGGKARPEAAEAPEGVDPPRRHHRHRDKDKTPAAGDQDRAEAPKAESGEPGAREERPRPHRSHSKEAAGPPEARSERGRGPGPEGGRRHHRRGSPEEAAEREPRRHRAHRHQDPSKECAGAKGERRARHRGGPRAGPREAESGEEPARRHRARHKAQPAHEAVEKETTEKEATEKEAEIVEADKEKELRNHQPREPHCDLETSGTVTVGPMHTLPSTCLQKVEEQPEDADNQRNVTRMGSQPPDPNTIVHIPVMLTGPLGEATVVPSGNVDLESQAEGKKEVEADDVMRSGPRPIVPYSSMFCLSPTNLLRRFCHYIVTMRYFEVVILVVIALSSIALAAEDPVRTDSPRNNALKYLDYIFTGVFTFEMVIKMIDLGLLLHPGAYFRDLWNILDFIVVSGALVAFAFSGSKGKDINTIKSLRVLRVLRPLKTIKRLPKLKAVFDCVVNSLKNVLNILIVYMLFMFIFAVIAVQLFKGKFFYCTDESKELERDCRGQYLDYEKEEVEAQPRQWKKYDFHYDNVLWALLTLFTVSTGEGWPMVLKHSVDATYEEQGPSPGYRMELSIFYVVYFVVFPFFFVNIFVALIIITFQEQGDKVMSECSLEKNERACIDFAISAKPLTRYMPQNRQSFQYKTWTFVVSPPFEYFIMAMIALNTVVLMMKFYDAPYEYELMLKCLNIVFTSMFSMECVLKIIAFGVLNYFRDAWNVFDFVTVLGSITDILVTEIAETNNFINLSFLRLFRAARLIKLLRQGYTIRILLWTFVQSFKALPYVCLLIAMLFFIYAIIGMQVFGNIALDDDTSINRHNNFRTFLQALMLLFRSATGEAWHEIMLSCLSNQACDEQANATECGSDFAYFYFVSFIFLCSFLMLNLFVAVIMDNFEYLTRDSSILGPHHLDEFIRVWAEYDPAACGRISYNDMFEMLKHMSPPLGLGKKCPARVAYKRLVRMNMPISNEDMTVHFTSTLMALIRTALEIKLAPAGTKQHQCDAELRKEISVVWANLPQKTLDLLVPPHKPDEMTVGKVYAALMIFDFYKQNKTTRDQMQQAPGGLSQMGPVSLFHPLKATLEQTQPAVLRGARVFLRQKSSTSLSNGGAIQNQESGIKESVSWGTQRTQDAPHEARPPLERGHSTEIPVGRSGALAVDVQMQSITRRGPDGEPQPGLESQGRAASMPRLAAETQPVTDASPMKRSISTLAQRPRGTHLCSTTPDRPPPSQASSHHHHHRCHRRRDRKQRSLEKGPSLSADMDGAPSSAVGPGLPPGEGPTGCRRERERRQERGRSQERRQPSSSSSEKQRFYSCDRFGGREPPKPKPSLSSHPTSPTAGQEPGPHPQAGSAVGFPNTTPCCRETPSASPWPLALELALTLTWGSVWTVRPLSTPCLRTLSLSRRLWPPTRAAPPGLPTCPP
T2 sequence (Q00975 1-2237 isoform Q00975-2): as above
T8 sequence (Q00975 1-2237 isoform Q00975-2): as above
T8 sequence (Q02641 1-478 isoform Q02641-3 partner): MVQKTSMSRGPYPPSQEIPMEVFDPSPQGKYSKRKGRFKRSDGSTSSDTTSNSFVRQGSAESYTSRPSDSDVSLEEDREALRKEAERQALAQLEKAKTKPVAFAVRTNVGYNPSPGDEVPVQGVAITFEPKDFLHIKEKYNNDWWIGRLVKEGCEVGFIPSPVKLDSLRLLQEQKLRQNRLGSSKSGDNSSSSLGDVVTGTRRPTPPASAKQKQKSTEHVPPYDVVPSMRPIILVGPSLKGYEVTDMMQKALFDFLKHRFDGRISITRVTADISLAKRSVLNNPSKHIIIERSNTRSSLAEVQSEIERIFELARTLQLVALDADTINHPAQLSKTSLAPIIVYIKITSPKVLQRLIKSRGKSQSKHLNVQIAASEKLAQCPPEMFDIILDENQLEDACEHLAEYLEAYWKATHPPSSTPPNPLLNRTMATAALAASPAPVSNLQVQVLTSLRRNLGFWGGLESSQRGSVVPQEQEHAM

With `COC(=O)C1=C(C)NC(C)=C([N+](=O)[O-])C1c1ccccc1C(F)(F)F` (centres unmarked) [Bay K 8644] the “effect on channel activity” value (α1B-1α2bβ1-2 [1]; 1 μM, n=4) was “no discernable effect”, the “effects of Bay K 8644 (current magnitude, tail currents, activation voltage)” value [2] was “No such effects” and the “sensitivity of inward barium currents” value [3] was “insensitive”.

`C[C@@H](O)[C@@H]1NC(=O)[C@H](Cc2ccc(O)cc2)NC(=O)[C@@H]2C[C@@H](O)CN2C(=O)[C@H](CC(N)=O)NC(=O)[C@@H]2CSSC[C@@H]3NC(=O)[C@H](CO)NC(=O)[C@H](CO)NC(=O)CNC(=O)[C@@H]4C[C@@H](O)CN4C(=O)[C@H](CO)NC(=O)[C@H](CCCCN)NC(=O)[C@@H](N)CSSC[C@H](NC(=O)[C@H](CSSC[C@@H](C(=O)N[C@@H](Cc4ccc(O)cc4)C(N)=O)NC(=O)[C@H](CCCNC(=N)N)NC(=O)[C@H](CCCCN)NC1=O)NC(=O)[C@H](CC(N)=O)NC(=O)[C@H](Cc1ccc(O)cc1)NC(=O)[C@H](CO)NC(=O)[C@H]([C@@H](C)O)NC(=O)[C@@H]1C[C@@H](O)CN1C(=O)[C@H](CO)NC3=O)C(=O)N[C@@H](CCCNC(=N)N)C(=O)N[C@@H](CO)C(=O)N2` [^125I-ω-CgTx GVIA] was tested, and the “Bmax (sites/cell)” value (α1B-2a2bβ1-2) was 19,371 ± 3,798 sites/cell, the “Bmax (sites/cell)” value (α1B-1β1-3) was 8,729 ± 2,980 sites/cell and the “Bmax (sites/cell)” value (α1B-1α2b) was 2,256 ± 356 sites/cell. For the same compound, the “Bmax (sites/cell)” value (α1B-2α2bβ1-3) was 37,652 ± 8,129 sites/cell, the “Bmax (sites/cell)” value (α1B-2β1-3) was 2,944 ± 1,168 sites/cell and the “Bmax (sites/cell)” value (α1B-1α2bβ1-2 [4]) was 45,324 ± 15,606 sites/cell. For the same compound, the “Bmax (sites/cell)” value (α1B-1β1-2) was 5,756 ± 2,163 sites/cell, the “Bmax (sites/cell)” value (α1B-2β1-2) was 2,126 ± 412 sites/cell and the “Bmax (sites/cell)” value (α1B-1α2bβ1-3) was 91,004 ± 37,654 sites/cell.

In the case of `[Cd]` [cadmium], the blockage (α1B-1α2bβ1-2 [1]; 50 μM) is reported as “rapid, complete, and reversible”.

With `C[C@@H](O)[C@@H]1NC(=O)[C@H](Cc2ccc(O)cc2)NC(=O)[C@@H]2C[C@@H](O)CN2C(=O)[C@H](CC(N)=O)NC(=O)[C@@H]2CSSC[C@@H]3NC(=O)[C@H](CO)NC(=O)[C@H](CO)NC(=O)CNC(=O)[C@@H]4C[C@@H](O)CN4C(=O)[C@H](CO)NC(=O)[C@H](CCCCN)NC(=O)[C@@H](N)CSSC[C@H](NC(=O)[C@H](CSSC[C@@H](C(=O)N[C@@H](Cc4ccc(O)cc4)C(N)=O)NC(=O)[C@H](CCCNC(=N)N)NC(=O)[C@H](CCCCN)NC1=O)NC(=O)[C@H](CC(N)=O)NC(=O)[C@H](Cc1ccc(O)cc1)NC(=O)[C@H](CO)NC(=O)[C@H]([C@@H](C)O)NC(=O)[C@@H]1C[C@@H](O)CN1C(=O)[C@H](CO)NC3=O)C(=O)N[C@@H](CCCNC(=N)N)C(=O)N[C@@H](CO)C(=O)N2` [ω-CgTX] the block of activity (α1B-1α2bβ1-2 [1]) was “blocked the activity completely”, the block of channels (α1B-1α2bβ1-2 [1]) was “blocked irreversibly” and the “time to complete block” value (α1B-1α2bβ1-2 [1]) was ≤ 2 min. The “binding capacity (Bmax)” value [5] was 28,710±11,950 sites per cell.
